In patent US20050065187A1, “Novel antimicrobial aryloxazolidinone compounds” (priority 2003, published 2005):
Values after ≈ are worked out from the molar mass of the structure shown.

Key:
Test in all cases: Antibacterial assay (Test A), microtitration MIC
HINF 30063 = format: cell-based, H. influenza; details: Minimum Inhibitory Concentration, strain HINF 30063
Description: (§1) Test A—Antibacterial Assays
(§2) The compounds of the present invention were tested against an assortment of Gram-negative and Gram-positive organisms using standard microtitration techniques (Cohen et. al., Antimicrob., 1985;28:766; Heifetz, et. al., Antimicrob., 1974;6:124).

SAUR 9213 = format: cell-based, S. aureus; details: Staphylococcus aureus; Minimum Inhibitory Concentration, strain SAUR 9213; read-out: SAUR 9213 MIC
Description: as §1, §2

SPNE 9912 = format: cell-based, S. pneumoniae; details: Streptococcus pneumoniae; Minimum Inhibitory Concentration, strain SPNE 9912; read-out: SPNE 9912 MIC
Description: as §1, §2

MC 30603 = format: cell-based, M. catarrhalis; details: Moraxella catarrhalis; Minimum Inhibitory Concentration, strain MC 30603; read-out: MC 30603 MIC
Description: as §1, §2

For O=C1O[C@@H](CNC(=S)C(F)F)CN1c1ccc(C2CCC(O)CC2)c(F)c1 (stereo partly shown) [Example 19, 2,2-Difluoro-N-{3-[3-fluoro-4-(4-hydroxy-cyclohexyl)-phenyl]-2-oxo-oxazolidin-5-ylmethyl}-thioacetamide], which MIC (HINF 30063) is on record?
Its MIC is 8 µg/mL (≈ 19.9 µM).

What about the MIC (SAUR 9213) of the same compound?
Its MIC is 2 µg/mL (≈ 4.97 µM).

What about the MIC (SPNE 9912) of the same compound?
The MIC was 0.5 µg/mL (≈ 1.24 µM).

And the MIC (MC 30603)?
The MIC was 2 µg/mL (≈ 4.97 µM).

What does the source list for NC(=O)[C@H]1CN(c2ccc(C3CCC(O)CC3)c(F)c2)C(=O)O1 (stereo in doubt) [Example 23, 3-[3-Fluoro-4-(4-hydroxy-cyclohexyl)-phenyl]-2-oxo-oxazolidine-5-carboxylic acid amide]?
MIC (HINF 30063): 64 µg/mL (≈ 199 µM); MIC (SAUR 9213): 2 µg/mL (≈ 6.2 µM); MIC (SPNE 9912): 1 µg/mL (≈ 3.1 µM); MIC (MC 30603): 16 µg/mL (≈ 49.6 µM)

What does the source list for CCC(=O)NC[C@H]1CN(c2ccc(C3CCC(O)C(F)C3)c(F)c2)C(=O)O1 (single isomer, unassigned) [Example 27, N-{3-[3-Fluoro-4-(3-fluoro-4-hydroxy-cyclohexyl)-phenyl]-2-oxo-oxazolidin-5-ylmethyl}-propionamide]?
MIC (HINF 30063): 8 µg/mL (≈ 20.9 µM); MIC (SAUR 9213): 2 µg/mL (≈ 5.23 µM); MIC (SPNE 9912): 0.25 µg/mL (≈ 0.654 µM); MIC (MC 30603): 2 µg/mL (≈ 5.23 µM)

Which results are given for O=C1O[C@@H](CNC(=S)C(F)F)CN1c1ccc(C2CCC(O)[C@@H](O)C2)c(F)c1 (stereo in doubt) [Example 11, N-{3-[4-(3,4-Dihydroxy-cyclohexyl)-3-fluoro-phenyl]-2-oxo-oxazolidin-5-ylmethyl}-2,2-difluoro-thioacetamide]?
MIC (HINF 30063): 8 µg/mL (≈ 19.1 µM); MIC (SAUR 9213): 1 µg/mL (≈ 2.39 µM); MIC (SPNE 9912): 0.5 µg/mL (≈ 1.19 µM); MIC (MC 30603): 4 µg/mL (≈ 9.56 µM)

Which results are given for CC(=O)NC[C@H]1CN(c2ccc(C3CCC(=NO)CC3)c(F)c2)C(=O)O1 (stereo partly shown) [Example 21, N-{3-[3-Fluoro-4-(4-hydroxyimino-cyclohexyl)-phenyl]-2-oxo-oxazolidin-5-ylmethyl}-acetamide]?
MIC (HINF 30063): 16 µg/mL (≈ 44 µM); MIC (SAUR 9213): 1 µg/mL (≈ 2.75 µM); MIC (SPNE 9912): 0.5 µg/mL (≈ 1.38 µM); MIC (MC 30603): 8 µg/mL (≈ 22 µM)

With CC(=O)NC[C@H]1CN(c2ccc(C3CCC(O)C(F)C3)c(F)c2)C(=O)O1 (single isomer, unassigned) [Example 26, N-{3-[3-Fluoro-4-(3-fluoro-4-hydroxy-cyclohexyl)-phenyl]-2-oxo-oxazolidin-5-ylmethyl}-acetamide] as the compound, how does the MIC (HINF 30063) read?
The MIC was 16 µg/mL (≈ 43.4 µM).

What about the MIC (SAUR 9213) of the same compound?
The MIC was 2 µg/mL (≈ 5.43 µM).

And the MIC (SPNE 9912)?
The MIC was 0.5 µg/mL (≈ 1.36 µM).

What about the MIC (MC 30603) of the same compound?
The MIC was 8 µg/mL (≈ 21.7 µM).

Which MIC (HINF 30063) does the source give for CC(=O)NC[C@H]1CN(c2ccc(C3CC[C@@H](O)[C@@H](O)C3)cc2)C(=O)O1 (single isomer, unassigned) [Example 12, N-{3-[4-(3,4-Dihydroxy-cyclohexyl)-phenyl]-2-oxo-oxazolidin-5-ylmethyl}-acetamide] here?
The MIC was 16 µg/mL (≈ 45.9 µM).

And the MIC (SAUR 9213)?
Its MIC is 16 µg/mL (≈ 45.9 µM).

What about the MIC (SPNE 9912) of the same compound?
Its MIC is 4 µg/mL (≈ 11.5 µM).

What about the MIC (MC 30603) of the same compound?
Its MIC is 16 µg/mL (≈ 45.9 µM).
